{"source": "patent EP0388909A2", "about": "“Thiazole compounds, processes for the preparation thereof and pharmaceutical composition comprising the same” (FUJISAWA PHARMACEUTICAL CO., LTD., priority 1989, dated 1990)", "key": {"PRP": {"tested_on": "PRP", "test": "Platelet aggregation ex vivo (arachidonic acid induced, PRP after oral dosing)", "format": "in vivo", "conditions": "Cavia porcellus, 6 h, Dose 1.0 mg/kg oral, blood collected six hours after administration, arachidonic acid final 50 µM as aggregation inducer, male Hartley guinea-pigs", "experimental": "Male Hartley guinea-pigs weighing about 300 g were used after 24 hours fasting. Six hours after oral administration of the test compound or vehicle of test compound (control), blood was collected into a tube containing 0.1 vol. of 3.8% sodium citrate and prepared platelet rich plasma (PRP).\nTo the […] of PRP, 5 µl of arachidonic acid (final 50 µM) was added as an aggregation inducer. Aggregation was measured by using an aggregometer (NKK HEMA-TRACER 1)."}, "isolated rat aorta": {"tested_on": "isolated rat aorta", "test": "Relaxation effect on isolated rat aorta (KCl-induced contraction)", "conditions": "dose required to relax the isolated rat aorta by 50%; contraction induced by KCl 30 mM; maximum relaxation by 10⁻⁴M papaverine; read-out: ED₅₀", "experimental": "Helical strip of rat thoracic aorta was suspended in the organ bath containing Tyrode solution gassed with 95% O₂ - 5% CO₂ at 37°C under 0.5 g load. Contraction was induced by addition of KCℓ solution (final concentration was 30 mM). […] Activities of the test compound were expressed as ED₅₀ values i.e. doses required to relax the isolated rat aorta by 50%."}, "cyclooxygenase": {"molecular_target": "T1, cyclooxygenase (Oryctolagus cuniculus, UniProt O97554)", "T1 construct": "Washed rabbit PRP (900 µl) was preincubated with drug solution; endogenous in cells; host or cells: washed rabbit platelets (PRP)", "T1 sequence (O97554 31-606)": "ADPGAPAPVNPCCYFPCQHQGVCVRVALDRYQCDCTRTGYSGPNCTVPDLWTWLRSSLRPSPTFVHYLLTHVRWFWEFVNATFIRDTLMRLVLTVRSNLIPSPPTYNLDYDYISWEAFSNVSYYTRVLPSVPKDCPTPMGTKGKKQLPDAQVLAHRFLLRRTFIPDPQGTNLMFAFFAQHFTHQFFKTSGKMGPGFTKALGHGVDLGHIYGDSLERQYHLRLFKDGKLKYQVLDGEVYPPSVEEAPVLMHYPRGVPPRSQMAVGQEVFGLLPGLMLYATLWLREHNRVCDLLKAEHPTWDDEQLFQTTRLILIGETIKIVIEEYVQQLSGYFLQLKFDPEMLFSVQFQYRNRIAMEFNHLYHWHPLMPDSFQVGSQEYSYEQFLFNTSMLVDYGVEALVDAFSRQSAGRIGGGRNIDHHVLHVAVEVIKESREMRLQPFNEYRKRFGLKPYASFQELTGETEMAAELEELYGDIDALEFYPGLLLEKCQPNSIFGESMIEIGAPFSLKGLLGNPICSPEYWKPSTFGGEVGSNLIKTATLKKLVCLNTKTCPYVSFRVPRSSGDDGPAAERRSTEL", "test": "Effect on malondialdehyde (MDA) production in rabbit platelets", "format": "cell-based", "conditions": "dose required to inhibit the production of malondialdehyde by 50%; washed rabbit PRP, arachidonic acid added; read-out: IC₅₀", "experimental": "Washed rabbit PRP (900 µl) was preincubated with drug solution (dissolved in dimethyl sulfoxide) (100 µl) at 37°C for 5 minutes. Then, 2.5 mM arachidonic acid solution (20 µl) was added to the reaction mixture. After 3 minutes, thiobarbiturate reagent (1000 µl) was added, and the reaction mixture was heated in a boiled water. After centrifugation at 1500 g for 10 minutes, the absorbance of suparnatant was measured at 532 nm. This test was carried out to see inhibitory activity of the test compound against the activity of cyclooxygenase. Activity of the test compound was expressed as IC₅₀ values i.e. doses required to inhibit the production of malondialdehyde by 50%."}, "human washed platelets": {"tested_on": "human washed platelets", "test": "Thrombin induced aggregation in human washed platelets", "format": "cell-based", "conditions": "Concentration 1.0 x 10⁻⁵ M; thrombin final conc. 0.3-0.5 U/ml", "experimental": "Blood was drawn from healthy volunteers into a plastic tube containing 1/10 volume of 3.8% sodium citrate and centrifuged at 120 g for 10 minutes to obtain platelet rich plasma (PRP). An equal volume of 25 mM Tris-HCl buffer (pH 7.4) containing 130 mM NaCl and 1.5 mM EDTA (buffer A) was added to the PRP, mixed and centrifuged at 1500 g for 10 minutes. The platelet pellet was suspended in buffer A and centrifuged at 1500 g for 5 minutes. The platelets were resuspended in 25 mM Tris-HCl buffer (pH 7.4) containing 130 mM NaCl and 0.3 mM EDTA and recentrifuged at 1500 g for 5 minutes. The platelets were finally suspended in Tyrode solution containing 0.3 % bovine serum albumin and the platelet count was adjusted to 3 x 10⁸/ml. To 247.5 µl of platelet suspension, 2.5 µl of drug solution was added and incubated for 2 minutes at 37°C prior to addition of thrombin solution (final conc. 0.3-0.5 U/ml). Platelet aggregation was turbidometrically measured using a HEMA-TRACER 1."}}, "note": "Structures can show the parent of a compound that is named as a salt.", "data": [{"smiles": "COc1ccc(-c2nc(CNC(=O)C3=NNC(=O)CC3)sc2-c2ccc(OC)cc2)cc1", "note": "[Example 15, 4,5-bis(4-methoxyphenyl)-2-{(6-oxo-1,4,5,6-tetrahydropyridazin-3-yl)carbonyiaminomethyl}thiazole]", "values": [{"measurement": "inhibition at 1 mg/kg", "setting": "PRP", "value": 100, "unit": "%"}, {"measurement": "EC50", "setting": "isolated rat aorta", "value": 7.3, "unit": "µM"}]}, {"smiles": "COc1ccc(-c2nc(CNC(=O)c3cccnc3)sc2-c2ccc(OC)cc2)cc1", "note": "[Example 19, 4,5-bis(4-methoxyphenyl)-2-(nicotinoylaminomethyl)thiazole hydrochloride]", "values": [{"measurement": "EC50", "setting": "isolated rat aorta", "value": 8.2, "unit": "µM"}]}, {"smiles": "COc1ccc(-c2nc(CNC(C)=O)sc2-c2ccc(OC)cc2)cc1", "note": "[Example 1, 2-acetylaminomethyl-4,5-bis(4-methoxyphenyl)thiazole]", "values": [{"measurement": "IC50", "setting": "cyclooxygenase", "value": 0.015, "unit": "µM"}]}, {"smiles": "CNC(=O)NCc1nc(-c2ccc(OC)cc2)c(-c2ccc(OC)cc2)s1", "note": "[Example 24, 4,5-Bis(4-methoxyphenyl)-2-(3-methylureidomethyl)thiazole]", "values": [{"measurement": "Inhibition of the aggregation (%)", "setting": "human washed platelets", "value": 71.3, "unit": "%"}]}]}
